Laboratory results: paper PMC10648349, “Aromatic Diboronic Acids as Effective KPC/AmpC Inhibitors” (Molecules, 2023)
Values after ≈ are worked out from the molar mass of the structure shown.

Columns and labels:
E. faecalis ATCC 29212 = test: direct antimicrobial activity (disc-diffusion, MIC, MBC); format: cell-based; settings: Enterococcus faecalis, ATCC29212
Protocol: (§1) Direct antimicrobial activity against Gram-negative and Gram-positive bacterial strains, as well as against yeast, was examined as previously described by the disc-diffusion test, the MIC determination assay, the MBC (for bacteria), and the MFC (for yeasts) determination tests. All the above-mentioned tests were performed according to EUCAST [71, 72] and CLSI [73, 74, 75, 76, 77] recommendations. The following reference agents were used: nitrofurantoin (for Gram-negative rods), linezolid (for Gram-positive bacteria), and fluconazole (in the case of fungi). The new aromatic diboronic acids were dissolved in DMSO (Sigma, St. Louis, MO, USA). In the disc-diffusion test, the concentration of new agents was 0.4 mg per disc.

E. faecium ATCC 6057 = test: as above; format: cell-based; settings: Enterococcus faecium, ATCC6057
Protocol: as §1

[1] = system: S. aureus ATCC 43300 MRSA; test: as above; format: cell-based; settings: Staphylococcus aureus; for zone of inhibition at 0.4 mg/disc: 0.4 mg per disc, 9 mm disc (linezolid 0.03 mg, 6 mm disc), - no zone, read-out: Diameter of inhibition zone
Protocol: as §1

S. aureus ATCC 6538P = test: as above; format: cell-based; settings: Staphylococcus aureus, ATCC6538P; for zone of inhibition at 0.4 mg/disc: 0.4 mg per disc, 9 mm disc (linezolid 0.03 mg, 6 mm disc), - no zone, read-out: Diameter of inhibition zone
Protocol: as §1

[2] = system: S. epidermidis ATCC 12228; test: as above; format: cell-based; settings: Staphylococcus epidermidis, ATCC12228; for zone of inhibition at 0.4 mg/disc: 0.4 mg per disc, 9 mm disc (linezolid 0.03 mg, 6 mm disc), - no zone, read-out: Diameter of inhibition zone
Protocol: as §1

[3] = system: C. parapsilosis ATCC 22019; test: antifungal activity (disc-diffusion, MIC, MFC); format: cell-based, Candida parapsilosis; settings: Lodderomyces parapsilosis, ATCC22019; fluconazole by Etest
Protocol: as §1

[4] = system: C. guilliermondii IBA 155; test: antifungal activity (disc-diffusion, MIC, MFC); format: cell-based, Candida guilliermondii; settings: Meyerozyma guilliermondii, IBA155; fluconazole by Etest
Protocol: as §1

C. krusei ATCC 6258 = test: antifungal activity (disc-diffusion, MIC, MFC); format: cell-based, Candida krusei; settings: Pichia kudriavzevii, ATCC6258; fluconazole by Etest
Protocol: as §1

C. albicans ATCC 90028 = test: antifungal activity (disc-diffusion, MIC, MFC); format: cell-based; settings: Candida albicans, ATCC90028; fluconazole by Etest
Protocol: as §1

C. tropicalis ATCC 750 = test: antifungal activity (disc-diffusion, MIC, MFC); format: cell-based; settings: Candida tropicalis, ATCC750; fluconazole by Etest
Protocol: as §1

C. tropicalis IBA 171 = test: antifungal activity (disc-diffusion, MIC, MFC); format: cell-based; settings: Candida tropicalis, IBA171; fluconazole by Etest
Protocol: as §1

S. cerevisiae ATCC 9763 = test: antifungal activity (disc-diffusion, MIC, MFC); format: cell-based; settings: Saccharomyces cerevisiae, ATCC9763; fluconazole by Etest
Protocol: as §1

E. coli 76 KPC-2(+) = test: MIC of tested agent alone, microdilution; format: cell-based; settings: Escherichia coli; read-out: MIC of agent alone
Protocol: (§2) To examine the ability of tested agents to inhibit various carbapenemases and AmpC-enzymes, their synergy with antibiotics against β-lactamase-producing strains was assessed by checkerboard microdilution assay, with slight modification. Checkerboards were prepared in microtiter plates, with seven two-fold dilutions of β-lactams (1–64 mg/L) in the rows and three two-fold dilutions of tested agents and PBA (4–16 mg/L) in the columns. Tested agents’ concentrations were limited to the concentrations at which the newest commercially available BLIs (vaborbactam, relebactam, and avibactam) are used in susceptibility testing. Plates were inoculated and incubated as in the MIC microdilution assay. Parallel, MICs of tested agents and PBA alone were determined by the microdilution assay. Following the incubation, antibiotic MICs in the presence of each agent’s concentration were determined. Moreover, for the first well without growth found in each checkerboard row and column along the growth/non-growth interface, the fractional inhibitory concentration index (FICI) was calculated using the formula below:FICI = [(MIC of antibiotic in combination)/(MIC of antibiotic alone)] + [(MIC of the tested agent in combination)/(MIC of tested agent alone)].

E. coli 77 CMY-2(+) = test: MIC of tested agent alone, microdilution; format: cell-based; settings: Escherichia coli; read-out: MIC of agent alone
Protocol: as §2

[5] = system: K. pneumoniae 81 KPC-3(+); test: MIC of tested agent alone, microdilution; format: cell-based; settings: Klebsiella pneumoniae; read-out: MIC of agent alone
Protocol: as §2

[6] = system: K. pneumoniae 83 KPC-3(+), CTX-M-3(+); test: MIC of tested agent alone, microdilution; format: cell-based; settings: Klebsiella pneumoniae; read-out: MIC of agent alone
Protocol: as §2

[7] = system: K. pneumoniae ATCC BAA-1705 KPC-2(+); test: MIC of tested agent alone, microdilution; format: cell-based; settings: Klebsiella pneumoniae, ATCCBAA1705; read-out: MIC of agent alone
Protocol: as §2

[8] = system: P. aeruginosa MUW 700 AmpC(+); test: MIC of tested agent alone, microdilution; format: cell-based; settings: Pseudomonas aeruginosa; read-out: MIC of agent alone
Protocol: as §2

[9] = system: K. pneumoniae ATCC BAA 1705 KPC-2-positive; test: combination disc test CDT-KPC; format: cell-based; settings: Klebsiella pneumoniae, BAA1705; agent 0.3 mg per disc; read-out: Diameter of inhibition zone, MEM-10 disc with agent
[10] = system: P. aeruginosa MUW 700 cAmpC-positive; test: combination disc test CDT-AmpC; format: cell-based; settings: Pseudomonas aeruginosa; agent 0.3 mg per disc; read-out: Diameter of inhibition zone, CAZ-30 disc with agent
[11] = system: E. coli 77 CMY-2-positive; test: combination disc test CDT-AmpC; format: cell-based; settings: Escherichia coli; agent 0.3 mg per disc; read-out: Diameter of inhibition zone, CAZ-30 disc with agent
[12] = system: K. pneumoniae ATCC 700603 ESBL-positive; test: combination disc test CDT-ESBL; format: cell-based; settings: Klebsiella pneumoniae, ATCC700603; agent 0.3 mg per disc; read-out: Diameter of inhibition zone, CAZ-30 disc with agent
[13] = system: E. coli 77 CMY-2-positive; test: checkerboard microdilution, antibiotic plus tested agent; format: cell-based, Escherichia coli
Protocol: as §2
(§3) For calculations, all off-scale MICs were converted to the next-highest doubling concentration. Subsequently, both the average and the lowest FICI were interpreted. The interpretation was as follows: FICI ≤ 0.5, synergy; 0.5 < FICI ≤ 4, indifference and FICI > 4, antagonism. Primarily, examined combinations consisted of meropenem (Pol-Aura, Morag, Poland) plus tested agents against carbapenemases-producing strains and ceftazidime (Pol-Aura, Morag, Poland) plus tested agents against AmpC-producing strains. For agents that reduced meropenem MIC at least 4-fold for at least two tested strains, similar assays were performed with imipenem (Pol-Aura, Morag, Poland) and ertapenem (Pol-Aura, Morag, Poland).

[14] = system: P. aeruginosa MUW 700 cAmpC-positive; test: as above; format: cell-based, Pseudomonas aeruginosa
Protocol: as §2, §3

[15] = MTT-based viability assay; format: cell-based; settings: human, MRC-5 human fibroblasts, 72 h, read-out: Viability of MRC-5 cells (% of viable cells ± SD)
Protocol: MRC-5 human fibroblasts (ECACC) were cultured in MEME, Minimum Essential Medium Eagle (Merck) supplemented with 10% fetal bovine serum (Merck), 2 mM l-glutamine, antibiotics (100 U/mL penicillin, 100 μg/mL streptomycin, Merck) and 1% non-essential amino acids (Merck). Cells were grown in 75 cm^2 cell culture flasks (Sarstedt) in a humidified atmosphere of CO2/air (5/95%) at 37 °C. MTT-based viability assay was conducted as described previously. Optical densities were measured at 570 nm using a BioTek microplate reader. All measurements were carried out in three replicates, and the results were expressed as a percent of viable cells versus control cells.

AmpC producers = test: microdilution with ceftazidime; format: cell-based
Protocol: as §2, §3

B. subtilis ATCC 6633 = test: direct antimicrobial activity (disc-diffusion); format: cell-based; settings: Bacillus subtilis, ATCC6633; 0.4 mg per disc, 9 mm disc (linezolid 0.03 mg, 6 mm disc); - no zone; read-out: Diameter of inhibition zone
Protocol: as §1

[16] = 0.4 mg per disc, 9 mm disc (linezolid 0.03 mg, 6 mm disc), - no zone, read-out: Diameter of inhibition zone

| SMILES | MIC (E. faecalis ATCC 29212) | MIC (E. faecium ATCC 6057) | MIC [1] | MIC (S. aureus ATCC 6538P) | MIC [2] | MIC [3] | MIC [4] | MIC (C. krusei ATCC 6258) | MIC (C. albicans ATCC 90028) | MIC (C. tropicalis ATCC 750) | MIC (C. tropicalis IBA 171) | MIC (S. cerevisiae ATCC 9763) | MIC (E. coli 76 KPC-2(+)) | MIC (E. coli 77 CMY-2(+)) | MIC [5] | MIC [6] | MIC [7] | MIC [8] | zone of inhibition at 300 µg/disc [9] | zone of inhibition at 300 µg/disc [10] | also measured |
| --- | --- | --- | --- | --- | --- | --- | --- | --- | --- | --- | --- | --- | --- | --- | --- | --- | --- | --- | --- | --- | --- |
| OB(O)c1cc(B(O)O)c(B(O)O)s1 [5c, thiophene-2,3,5-triboronic acid] | 200 µg/mL (≈ 928 µM) | > 400 µg/mL | > 400 µg/mL | 400 µg/mL (≈ 1860 µM) | > 400 µg/mL | > 400 µg/mL | > 400 µg/mL | > 400 µg/mL | 400 µg/mL (≈ 1860 µM) | > 400 µg/mL | > 400 µg/mL | > 400 µg/mL | > 400 µg/mL | > 400 µg/mL | > 400 µg/mL | > 400 µg/mL | > 400 µg/mL | > 400 µg/mL | 6 mm | 21 mm | zone of inhibition at 300 µg/disc [11]: 22 mm; zone of inhibition at 300 µg/disc [12]: 16 mm; Average FICI with ceftazidime [13]: 0.43; The lowest FICI with ceftazidime [13]: 0.27; Average FICI with ceftazidime [14]: 0.43; Interpretation of the average FICI with ceftazidime [14]: S (FICI ≤ 0.5, synergy); Interpretation of the lowest FICI with ceftazidime [14]: S (FICI ≤ 0.5, synergy); The lowest FICI with ceftazidime [14]: 0.27; viability at 72 h, 12.5 mg/L [15]: 102 ± 3.4%; viability at 72 h, 25 mg/L [15]: 97.9 ± 1.4%; viability at 72 h, 50 mg/L [15]: 85.6 ± 0.7%; ceftazidime MIC reduction, up to (AmpC producers; agent 4 mg/L): ≤ 2 fold; ceftazidime MIC reduction, up to (AmpC producers; agent 8 mg/L): up to 4 fold; ceftazidime MIC reduction, up to (AmpC producers; agent 16 mg/L): ≤ 8 fold |
| OB(O)c1ccc(Br)c(B(O)O)c1 [2f] | > 400 µg/mL | 200 µg/mL (≈ 818 µM) | 200 µg/mL (≈ 818 µM) | 50 µg/mL (≈ 204 µM) | 100 µg/mL (≈ 409 µM) | > 400 µg/mL | > 400 µg/mL | 400 µg/mL (≈ 1640 µM) | > 400 µg/mL | > 400 µg/mL | > 400 µg/mL | 200 µg/mL (≈ 818 µM) | > 400 µg/mL | > 400 µg/mL | > 400 µg/mL | > 400 µg/mL | > 400 µg/mL | > 400 µg/mL | 6 mm | 21 mm | zone of inhibition at 0.4 mg/disc [1]: 13 mm; MBC (S. aureus ATCC 6538P): 400 µg/mL (≈ 1640 µM); zone of inhibition at 0.4 mg/disc (S. aureus ATCC 6538P): 14 mm; zone of inhibition at 0.4 mg/disc [2]: 25 mm; zone of inhibition at 0.4 mg/disc (B. subtilis ATCC 6633): 22 mm; zone of inhibition at 300 µg/disc [11]: 19 mm; zone of inhibition at 300 µg/disc [12]: 15 mm; viability at 72 h, 12.5 mg/L [15]: 103 ± 8.8%; viability at 72 h, 25 mg/L [15]: 92.1 ± 0.9%; viability at 72 h, 50 mg/L [15]: 76.2 ± 0.7% |
| OB(O)c1c(F)c(F)c(F)c(F)c1B(O)O [3d] | 200 µg/mL (≈ 841 µM) | 200 µg/mL (≈ 841 µM) | 400 µg/mL (≈ 1680 µM) | 200 µg/mL (≈ 841 µM) | 200 µg/mL (≈ 841 µM) | > 400 µg/mL | 200 µg/mL (≈ 841 µM) | 50 µg/mL (≈ 210 µM) | 100 µg/mL (≈ 421 µM) | > 400 µg/mL | > 400 µg/mL | 200 µg/mL (≈ 841 µM) | > 400 µg/mL | > 400 µg/mL | > 400 µg/mL | > 400 µg/mL | > 400 µg/mL | > 400 µg/mL | 6 mm | 14 mm | zone of inhibition at 0.4 mg/disc (E. faecalis ATCC 29212; [16]): 12 mm; zone of inhibition at 0.4 mg/disc (E. faecium ATCC 6057; [16]): 16 mm; zone of inhibition at 0.4 mg/disc [1]: 18 mm; zone of inhibition at 0.4 mg/disc (S. aureus ATCC 6538P): 20 mm; zone of inhibition at 0.4 mg/disc [2]: 21 mm; zone of inhibition at 0.4 mg/disc (B. subtilis ATCC 6633): 12 mm; zone of inhibition at 300 µg/disc [11]: 21 mm; zone of inhibition at 300 µg/disc [12]: 15 mm; viability at 72 h, 12.5 mg/L [15]: 91.3 ± 7.4%; viability at 72 h, 25 mg/L [15]: 100 ± 7.7%; viability at 72 h, 50 mg/L [15]: 77.7 ± 15.5% |
